Measurements as given in the supplement of paper PMC10949913.

What was measured:
Settings in all cases: 48 h
CU-ACC1 [1] = assay: AC50 viability; higher = less potent
Procedure, shortened: (§1)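 Three adrenocortical carcinoma cell lines were plated in 1,536-well plates at 500–1,000 cells/well in 5 µL medium, and 23 nL of each library compound was added at 11 concentrations. After 48 h, CellTiter-Glo was applied for 15 minutes at room temperature before luminescence was read. Each plate's signals were normalised to vehicle and empty-well controls. AC50 and area under the curve were taken from fitted concentration-response curves, with only inhibitory or non-responding curve classes retained.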

NCI-H295R [2] = assay: AC50 viability; higher = less potent
Procedure, shortened: as §1

CU-ACC1 [3] = assay: area under concentration-response curve (viability) (AUC (a.u.)); higher = less active
Procedure, shortened: as §1

CU-ACC2 = assay: as above
Procedure, shortened: as §1

NCI-H295R [4] = assay: as above
Procedure, shortened: as §1

Row | Compound | AC50 viability (CU-ACC1 [1]) [µM] | AC50 viability (NCI-H295R [2]) [µM] | area under concentration-response curve (CU-ACC1 [3]) | area under concentration-response curve (CU-ACC2) | area under concentration-response curve (NCI-H295R [4])
1 | Cn1c(=O)n(-c2ccc(C(C)(C)C#N)cc2)c2c3cc(-c4cnc5ccccc5c4)ccc3ncc21 | 0.108 | 0.171 | 471 | 623 | 510
2 | C=C1C(=O)O[C@H]2C[C@H](C)C(/C=C/C(C)=O)=CC[C@H]12 | 9.34 | 18.6 | 450 | 529 | 519
3 | Cc1cc(Nc2ncnc3ccc(-c4ccc(CNCC[S+](C)(=O)[O-])o4)cc23)ccc1Oc1ccn2ncnc2c1 | 23.5 | 8.33 | 386 | 355 | 392
4 | OC(c1cc(C(F)(F)F)nc2c(C(F)(F)F)cccc12)C1CCCCN1 (stereo not given) | 23.5 | 20.9 | 501 | 619 | 527
5 | Cc1ccc(NC(=O)c2ccc(CN3CCNCC3)cc2)cc1Nc1nccc(-c2cccnc2)n1 | 6.61 | 26.3 | 496 | 600 | 518
6 | CCNC(=O)C[C@@H]1\N=C(C2=CC=C(Cl)C=C2)/C3=C(C=CC(=C3)OC)[N]4C(=NN=C14)C | 13.2 | 8.33 | 423 | 500 | 457
7 | CNC(=O)c1cc(Oc2ccc(NC(=O)Nc3ccc(Cl)c(C(F)(F)F)c3)c(F)c2)ccn1 | 37.2 | 20.9 | 436 | 596 | 545
8 | COc1cc2ncnc(Nc3cccc(Cl)c3)c2cc1OC | 13.2 | 20.9 | 558 | 610 | 562
9 | CC/1=C/C(=O)N(O)/C(=C1)C2CCCCC2 | 10.5 | 7.42 | 505 | 570 | 528
10 | NC(=O)c1cccc2nc(-c3ccc([C@H]4CCCN4)cc3F)[nH]c12 | 8.33 | 7.42 | 453 | 576 | 464
11 | COc1ccc(CCN(C)CCCC(C#N)(c2ccc(OC)c(OC)c2)C(C)C)cc1OC (stereo not given) | 29.5 | 23.5 | 397 | 490 | 397
12 | C/C(=N\Nc1nnc2c(n1)[nH]c1c(C)cccc12)c1ccccn1 | 2.35 | 9.34 | 403 | 533 | 415
13 | CC[C@@H](C)Nc1cc(C(=O)NC2CC3CCC(C2)N3c2ccc(C(=O)C3CC3)cn2)c(C)cc1C(N)=O (stereo not given in full) | 1.32 | 0.934 | 346 | 436 | 382
14 | COc1cc(OC)cc(N2CCN(C(=O)Nc3nc4cc(F)ccc4nc3OC)CC2)c1 | 23.5 | 16.6 | 503 | 556 | 454
15 | C[C@H]1O[C@H](C[C@H](O)[C@@H]1O)O[C@H]2[C@@H](O)C[C@@H](O[C@@H]2C)O[C@H]3[C@@H](O)C[C@@H](O[C@@H]3C)O[C@H]4CC[C@@]5(C)[C@H](CC[C@@H]6[C@@H]5C[C@@H](O)[C@]7(C)[C@H](CC[C@]67O)C/8=C/C(=O)OC8)C4 | 0.0372 | 0.118 | 255 | 349 | 269
16 | CCc1cncnc1N1CCN(Cc2nc3cc(C(F)(F)F)ccc3[nH]2)CC1 | 20.9 | 20.9 | 438 | 590 | 502
17 | Cc1cccc(-c2[nH]c(C(C)(C)C)nc2-c2ccc3c(c2)OCO3)n1 | 5.25 | 11.8 | 426 | 595 | 481
18 | Cc1cnc(Nc2ccc(N3CCN(C)CC3)cc2)nc1Nc1cccc([S+](=O)([O-])NC(C)(C)C)c1 | 14.8 | 9.34 | 466 | 529 | 421
19 | O=C(NCCCNC(=O)c1cccnc1O)c1cc(-c2ccccc2)on1 | 20.9 | 18.6 | 481 | 574 | 443
20 | O=C(Nc1cccnc1)N1CCC(Cc2cccc(Oc3ccc(C(F)(F)F)cn3)c2)CC1 | 5.25 | 18.6 | 406 | 559 | 500

Row | Compound | AC50 viability (CU-ACC1 [1]) [µM] | AC50 viability (NCI-H295R [2]) [µM] | area under concentration-response curve (CU-ACC1 [3]) | area under concentration-response curve (CU-ACC2) | area under concentration-response curve (NCI-H295R [4])
21 | N#Cc1ccc(-c2c(-c3nnc[nH]3)sc(N3CCOCC3)c2C#N)c(F)c1 | 7.42 | 4.68 | 465 | 568 | 478
22 | COC1=C(OCCCN2CCOCC2)C=CC\3=C1/N=C(/NC(=O)C4=CN=C(N)N=C4)N5CC/N=C35 | 0.0382 | 0.108 | 431 | 542 | 452
23 | COc1cc(/C=C/C(=O)CC(=O)/C=C/c2ccc(O)c(OC)c2)ccc1O | 23.5 | 26.3 | 548 | 591 | 545
24 | Cc1nnn(C)c1-c1cnc2c3ccc(C(C)(C)O)cc3n([C@H](c3ccccc3)C3CCOCC3)c2c1 | 0.468 | 0.0166 | 416 | 482 | 425
25 | COc1cc(OC)cc(N(CCNC(C)C)c2ccc3ncc(-c4cnn(C)c4)nc3c2)c1 | 23.5 | 18.6 | 499 | 603 | 526
26 | CNC(=O)Nc1ccc(-c2nc(N3CC4CCC(C3)O4)c3cnn(C4CCC5(CC4)OCCO5)c3n2)cc1 | 0.148 | 1.05 | 404 | 520 | 455
27 | CC1=C(C)C2=C(S1)[N]3C(=NN=C3[C@H](CC(=O)OC(C)(C)C)/N=C2/C4=CC=C(Cl)C=C4)C | 18.6 | 16.6 | 432 | 553 | 520
28 | COC1(c2sc3c(N4CCOCC4)nc(-c4cnc(N)nc4)nc3c2C)COC1 | 0.525 | 0.372 | 287 | 374 | 322
29 | COc1cc(C(=O)NC(=N)Nc2ccc(C)c(NC(=O)c3ccc(-c4ccccc4)cc3)c2)cc(OC)c1OC | 10.5 | 13.2 | 403 | 489 | 399
30 | FC(F)(F)c1ccc(C/N=c2\ccc(Cc3c[nH]c4ncccc34)c[nH]2)cc1 | 16.6 | 11.8 | 511 | 597 | 541
31 | CCc1ccc(C(=O)Nc2cc(CN3CCN(C)CC3)cc(C(F)(F)F)c2)cc1C#Cc1cnc2ccnn2c1 | 7.42 | 8.33 | 453 | 559 | 431
32 | O=C([O-])C[C@H](O)C[C@H](O)/C=C/c1c(C2CC2)nc2ccccc2c1-c1ccc(F)cc1 | 4.68 | 10.5 | 394 | 478 | 464
33 | O=C(/C=C\n1cnc(-c2cc(C(F)(F)F)cc(C(F)(F)F)c2)n1)N1CC(F)(F)C1 | 1.32 | 0.59 | 448 | 467 | 456
34 | CCOc1cc(CC(=O)N[C@@H](CC(C)C)c2ccccc2N2CCCCC2)ccc1C(=O)O | 0.0059 | 5.25 | 221 | 240 | 188
35 | CCC[S+](=O)([O-])c1nc(NC2CC2)cc(-c2ccc3c(ccn3C3CC(C)(C)NC(C)(C)C3)c2)n1 | 3.93 | 3.12 | 490 | 580 | 530
36 | CC(C)(O)C[S+](=O)([O-])Nc1ccc2c(c1)CCN(C(=O)COc1cccnc1)C2 | 0.295 | 1.05 | 334 | 390 | 483
37 | CC(C)(C)NC(=O)c1cncn1C1CCN(c2ccc(-c3nnc(C(F)(F)F)o3)cn2)CC1 | 1.66 | 7.42 | 381 | 539 | 475
38 | COc1ncc(Nc2ncc([C@H](C)N3CCN([S+](C)(=O)[O-])CC3)cc2-c2nc(C)nc(N)n2)cc1F | 1.32 | 0.934 | 387 | 473 | 392
39 | C[C@@H]1CN(Cc2ccc(F)cc2)CCN1C(=O)COc1ccc(Cl)cc1NC(N)=O | 1.86 | 0.166 | 412 | 522 | 465
40 | Cn1cc(/C=C/C(=O)c2cccc(F)c2)cc1/C=C/C(=O)NO | 5.9 | 8.33 | 428 | 513 | 439

Row | Compound | AC50 viability (CU-ACC1 [1]) [µM] | AC50 viability (NCI-H295R [2]) [µM] | area under concentration-response curve (CU-ACC1 [3]) | area under concentration-response curve (CU-ACC2) | area under concentration-response curve (NCI-H295R [4])
41 | ONC(=O)C1=CC=C(C=C1)C/2=N/C3=CC=CC=C3OC4=C2C=CC=C4 | 16.6 | 16.6 | 362 | 507 | 557
42 | Nc1n[n+]([O-])c2ccccc2[n+]1[O-] | 29.5 | 20.9 | 474 | 617 | 529
43 | C[C@@H]1O[C@@H](O[C@@H]2C=C3CC[C@@H]4[C@H](CC[C@]5(C)[C@@H](c6ccc(=O)oc6)CC[C@]45O)[C@@]3(C)CC2)[C@H](O)[C@H](O)[C@H]1O | 0.0148 | 0.0332 | 219 | 307 | 277
44 | Cc1ccc(C(C)(O)c2nc3ccccc3s2)c(C)c1 (stereo not given) | 8.33 | 16.6 | 421 | 511 | 464
45 | Cc1cccc(CN2CCN(C(c3ccccc3)c3ccc(Cl)cc3)CC2)c1 (stereo not given) | 13.2 | 16.6 | 422 | 534 | 495
46 | FC(F)c1nc2ccccc2n1-c1nc(N2CCOCC2)nc(N2CCOCC2)n1 | 0.59 | 0.934 | 413 | 487 | 399
47 | C=C(C)[C@H]1Cc2c(ccc3c2O[C@@H]2COc4cc(OC)c(OC)cc4[C@@H]2C3=O)O1 | 0.166 | 1.05 | 344 | 479 | 445
48 | NC(=O)c1ccccc1Nc1ccnc(Nc2cccc(O)c2)n1 | 20.9 | 2.63 | 465 | 553 | 462
49 | Cc1ccc([S+](=O)([O-])Cc2nc(-c3ccc(C(=O)NCc4cccnc4)cc3)oc2C)cc1 | 0.0742 | 0.263 | 290 | 402 | 379
50 | CN1CCN(c2ncc(-c3cc(Cl)cc(Cl)c3Cl)c(N)n2)CC1 | 14.8 | 11.8 | 405 | – | 487
51 | C[S+](=O)([O-])CCNCc1ccc(-c2ccc3ncnc(Nc4ccc(OCc5cccc(F)c5)c(Cl)c4)c3c2)o1 | 23.5 | 20.9 | 420 | – | 456
52 | NC(=O)c1ccc2nc(-c3ccc(C4(N)CCC4)cc3)c(-c3ccccc3)n2n1 | 18.6 | 16.6 | 483 | – | 465
53 | NCC1CCN(c2nccc(-c3ccc4ccccc4c3)n2)CC1 | 23.5 | 16.6 | 477 | – | 492
54 | O=C1Nc2ccc(Cl)cc2[C@@](C#CC2CC2)(C(F)(F)F)O1 | 29.5 | 20.9 | 471 | – | 504
55 | Cc1cccc(-c2n[nH]cc2-c2ccc(F)c(-c3cnn(CCO)c3)c2)n1 | 5.25 | 13.2 | 284 | – | 308
56 | CCCC\1=C(/CNC(=O)C2=CC(=CC3=C2C=N[N]3C(C)C)C4=CC(=NC=C4)N5CCN(C)CC5)C(=O)NC(=C1)\C | 18.6 | 18.6 | 478 | – | 501
57 | CN(C)C(=O)C(CCN1CCC(O)(c2ccc(Cl)cc2)CC1)(c1ccccc1)c1ccccc1 | 16.6 | 20.9 | 506 | – | 549
58 | [2H]C([2H])(Nc1nc(-c2ccccc2C([2H])(C([2H])([2H])[2H])C([2H])([2H])[2H])ncc1C)c1ccc(-n2ccnn2)cc1 | 16.6 | 9.34 | 469 | – | 531
59 | NC(=O)N1CCC(CC(=O)N2CCC([C@H]3c4ncc(Br)cc4CCc4cc(Cl)cc(Br)c43)CC2)CC1 | 37.2 | 23.5 | 440 | – | 440
